Data as given in PubChem BioAssay (NCI).
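Cultured in 96-well plates, cells were exposed to test compound for 48 hours across five concentrations. Abbreviation: GI50, concentration required for 50% inhibition of growth. TGI marks complete inhibition of growth.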

Columns and labels:
Assay in all cases: DTP human tumour cell line panel, 48 h
SNB-75 CNS = test system: SNB-75 CNS
UACC-62 melanoma = test system: UACC-62 melanoma
A549 NSCLC = test system: A549 NSCLC
KM12 colon = test system: KM12 colon
MDA-MB-231 breast = test system: MDA-MB-231 breast
HCT-116 colon = test system: HCT-116 colon
K-562 leukemia = test system: K-562 leukemia
OVCAR-3 ovarian = test system: OVCAR-3 ovarian
RPMI-8226 leukemia = test system: RPMI-8226 leukemia
SK-MEL-2 melanoma = test system: SK-MEL-2 melanoma
SN12C renal = test system: SN12C renal
HT29 colon = test system: HT29 colon
SR leukemia = test system: SR leukemia
SF-295 CNS = test system: SF-295 CNS
T-47D breast = test system: T-47D breast
LOX IMVI melanoma = test system: LOX IMVI melanoma
NCI-H460 lung = test system: NCI-H460 lung
NCI/ADR-RES ovarian = test system: NCI/ADR-RES ovarian
IGROV1 ovarian = test system: IGROV1 ovarian
A498 renal = test system: A498 renal
NCI-H522 lung = test system: NCI-H522 lung
HCC-2998 colon = test system: HCC-2998 colon
EKVX NSCLC = test system: EKVX NSCLC
COLO 205 colon = test system: COLO 205 colon
SNB-19 CNS = test system: SNB-19 CNS
NCI-H226 lung = test system: NCI-H226 lung
MCF7 breast = test system: MCF7 breast
CCRF-CEM leukemia = test system: CCRF-CEM leukemia

`CS(=O)(=O)Nc1cncc(-c2ccc3ncnc(Nc4ccc(F)c(Cl)c4)c3c2)c1` was tested, and the GI50 (SNB-75 CNS) was 0.434 µM, the TGI (SNB-75 CNS) was 6.92 µM and the GI50 (UACC-62 melanoma) was 2.22 µM. It also gave a TGI (UACC-62 melanoma) of 11.8 µM, a GI50 (A549 NSCLC) of 3.75 µM and a TGI (A549 NSCLC) of 17.4 µM. The GI50 (KM12 colon) was 3.49 µM, the TGI (KM12 colon) was 13.3 µM and the GI50 (MDA-MB-231 breast) was 2.92 µM. For the same compound, the TGI (MDA-MB-231 breast) was 17.6 µM, the GI50 (HCT-116 colon) was 1.97 µM and the TGI (HCT-116 colon) was 5.77 µM. It also gave a GI50 (K-562 leukemia) of 3.88 µM, a TGI (K-562 leukemia) of 20.1 µM and a GI50 (OVCAR-3 ovarian) of 1.58 µM. For the same compound, the TGI (OVCAR-3 ovarian) was 7.19 µM, the GI50 (RPMI-8226 leukemia) was 2.24 µM and the TGI (RPMI-8226 leukemia) was 5.42 µM. For the same compound, the GI50 (SK-MEL-2 melanoma) was 1.5 µM, the TGI (SK-MEL-2 melanoma) was 3.79 µM and the GI50 (SN12C renal) was 2.6 µM. The TGI (SN12C renal) was 15.2 µM, the GI50 (HT29 colon) was 2.43 µM and the TGI (HT29 colon) was 11.4 µM. For the same compound, the GI50 (SR leukemia) was 1.78 µM, the TGI (SR leukemia) was 10.2 µM and the GI50 (SF-295 CNS) was 2.79 µM. For the same compound, the TGI (SF-295 CNS) was 13 µM, the GI50 (T-47D breast) was 0.189 µM and the TGI (T-47D breast) was 2.5 µM. For the same compound, the GI50 (LOX IMVI melanoma) was 1.73 µM, the TGI (LOX IMVI melanoma) was 10.2 µM and the GI50 (NCI-H460 lung) was 4.22 µM. It also gave a TGI (NCI-H460 lung) of 16 µM, a GI50 (NCI/ADR-RES ovarian) of 15.4 µM and a TGI (NCI/ADR-RES ovarian) of 60 µM. The GI50 (IGROV1 ovarian) was 0.34 µM, the TGI (IGROV1 ovarian) was 1.91 µM and the GI50 (A498 renal) was 0.57 µM. For the same compound, the TGI (A498 renal) was 3.2 µM, the GI50 (NCI-H522 lung) was 1.01 µM and the TGI (NCI-H522 lung) was 4.1 µM. It also gave a GI50 (HCC-2998 colon) of 4.19 µM, a TGI (HCC-2998 colon) of 16.8 µM and a GI50 (EKVX NSCLC) of 0.888 µM. The TGI (EKVX NSCLC) was 7.01 µM, the GI50 (COLO 205 colon) was 1.95 µM and the TGI (COLO 205 colon) was 5.97 µM. It also gave a GI50 (SNB-19 CNS) of 2.09 µM, a TGI (SNB-19 CNS) of 18.1 µM and a GI50 (NCI-H226 lung) of 2.57 µM. For the same compound, the TGI (NCI-H226 lung) was 21.3 µM, the GI50 (MCF7 breast) was 1.49 µM and the TGI (MCF7 breast) was 8.77 µM. The GI50 (CCRF-CEM leukemia) was 1.38 µM and the TGI (CCRF-CEM leukemia) was 13 µM.
